# Test results published in patent EP2974714B1, “USE OF DERIVATIVES WITH C-O-P BONDS IN PATIENTS WITH RENAL FAILURE” (LABORATORIS SANIFIT, S.L., priority 2013, dated 2014).
# What was measured:
# [1] = HAP crystallisation induction period (synergy with other treatments); format: physicochemical; conditions: drug effect simulated by modifying calcium and phosphate concentrations; control 8 minutes
# Description: Experimental: hydroxyapatite (HAP) was crystallised by mixing appropriate concentrations of calcium and phosphate at pH 7.4. The effect of cinacalcet and sevelamer was simulated by suitably modifying the calcium and phosphate concentrations. The induction period (time required for HAP to begin to crystallise) was recorded as the analytical signal.
# [2] = system: vit D-induced cardiovascular calcification in rats; assay: Inhibition of vit D-induced (300,000 IU/kg x 3) cardiovascular calcification by s.c. IP6; format: in vivo, male SD rats; conditions: s.c.
# Description: Experimental: male SD rats were divided into 9 groups. Two of said groups (sham and control groups) received s.c. saline 2 ml/kg; 6 groups received s.c. […] One group was treated with a s.c. Alzet pump loaded with 200 mg/ml IP6. Calcification was induced by oral administration of 300,000 IU/kg vitamin D (2 ml/kg) for 3 days starting on treatment day 3. […] The calcium content in heart, aorta and kidneys was determined after treatment for 7 days.
Compound,induction time (without IP6) [1],dose causing the same effect as 10 mg/kg IP6 [2],efficacy against calcification (in words) ([2]; at higher doses than IP6)
"C[C@@H](NCCCc1cccc(C(F)(F)F)c1)c1cccc2ccccc12 [cinacalcet, reference compound]",14 min,,
"O=P([O-])([O-])OP(=O)([O-])[O-].[Na+].[Na+].[Na+].[Na+] [pyrophosphate, sodium pyrophosphate, reference compound]",,28 mg/kg,good efficacy
